Patent US10815239B2, “Compounds useful as inhibitors of ATR kinase” (Vertex Pharmaceuticals Incorporated, priority 2013, dated 2020)

Target: T1, full-length ATR (Homo sapiens, UniProt Q13535)
T1 construct: Assays are carried out at 25° C. in the presence of 5 nM full-length ATR
Assay: ATR Inhibition Assay (radioactive-phosphate incorporation)
Type: biochemical
Conditions: 5 nM full-length ATR, 10 μM ATP, 800 μM target peptide, 25° C.; read-out: Ki (Ki(app)) for inhibition of ATR
Method: Compounds can be screened for their ability to inhibit ATR kinase using a radioactive-phosphate incorporation assay. Assays are carried out in a mixture of 50 mM Tris/HCl (pH 7.5), 10 mM MgCl2 and 1 mM DTT. Final substrate concentrations are 10 μM [γ-33P]ATP (3 mCi 33P ATP/mmol ATP, Perkin Elmer) and 800 μM target peptide (ASELPASQPQPFSAKKK).
Assays are carried out at 25° C. in the presence of 5 nM full-length ATR. An assay stock buffer solution is prepared containing all of the reagents listed above, with the exception of ATP and the test compound of interest. 13.5 μL of the stock solution is placed in a 96 well plate followed by addition of 2 μL of DMSO stock containing serial dilutions of the test compound (typically starting from a final concentration of 15 μM with 3-fold serial dilutions) in duplicate (final DMSO concentration 7%). The plate is pre-incubated for 10 minutes at 25° C. and the reaction initiated by addition of 15 μL [γ-33P]ATP (final concentration 10 μM).
The reaction is stopped after 24 hours by the addition of 30 μL 0.1M phosphoric acid containing 2 mM ATP. […]
After removing mean background values for all of the data points, Ki(app) data are calculated from non-linear regression analysis of the initial rate data using the Prism software package (GraphPad Prism version 3.0cx for Macintosh, GraphPad Software, San Diego Calif., USA).

T1 sequence (Q13535 whole entry): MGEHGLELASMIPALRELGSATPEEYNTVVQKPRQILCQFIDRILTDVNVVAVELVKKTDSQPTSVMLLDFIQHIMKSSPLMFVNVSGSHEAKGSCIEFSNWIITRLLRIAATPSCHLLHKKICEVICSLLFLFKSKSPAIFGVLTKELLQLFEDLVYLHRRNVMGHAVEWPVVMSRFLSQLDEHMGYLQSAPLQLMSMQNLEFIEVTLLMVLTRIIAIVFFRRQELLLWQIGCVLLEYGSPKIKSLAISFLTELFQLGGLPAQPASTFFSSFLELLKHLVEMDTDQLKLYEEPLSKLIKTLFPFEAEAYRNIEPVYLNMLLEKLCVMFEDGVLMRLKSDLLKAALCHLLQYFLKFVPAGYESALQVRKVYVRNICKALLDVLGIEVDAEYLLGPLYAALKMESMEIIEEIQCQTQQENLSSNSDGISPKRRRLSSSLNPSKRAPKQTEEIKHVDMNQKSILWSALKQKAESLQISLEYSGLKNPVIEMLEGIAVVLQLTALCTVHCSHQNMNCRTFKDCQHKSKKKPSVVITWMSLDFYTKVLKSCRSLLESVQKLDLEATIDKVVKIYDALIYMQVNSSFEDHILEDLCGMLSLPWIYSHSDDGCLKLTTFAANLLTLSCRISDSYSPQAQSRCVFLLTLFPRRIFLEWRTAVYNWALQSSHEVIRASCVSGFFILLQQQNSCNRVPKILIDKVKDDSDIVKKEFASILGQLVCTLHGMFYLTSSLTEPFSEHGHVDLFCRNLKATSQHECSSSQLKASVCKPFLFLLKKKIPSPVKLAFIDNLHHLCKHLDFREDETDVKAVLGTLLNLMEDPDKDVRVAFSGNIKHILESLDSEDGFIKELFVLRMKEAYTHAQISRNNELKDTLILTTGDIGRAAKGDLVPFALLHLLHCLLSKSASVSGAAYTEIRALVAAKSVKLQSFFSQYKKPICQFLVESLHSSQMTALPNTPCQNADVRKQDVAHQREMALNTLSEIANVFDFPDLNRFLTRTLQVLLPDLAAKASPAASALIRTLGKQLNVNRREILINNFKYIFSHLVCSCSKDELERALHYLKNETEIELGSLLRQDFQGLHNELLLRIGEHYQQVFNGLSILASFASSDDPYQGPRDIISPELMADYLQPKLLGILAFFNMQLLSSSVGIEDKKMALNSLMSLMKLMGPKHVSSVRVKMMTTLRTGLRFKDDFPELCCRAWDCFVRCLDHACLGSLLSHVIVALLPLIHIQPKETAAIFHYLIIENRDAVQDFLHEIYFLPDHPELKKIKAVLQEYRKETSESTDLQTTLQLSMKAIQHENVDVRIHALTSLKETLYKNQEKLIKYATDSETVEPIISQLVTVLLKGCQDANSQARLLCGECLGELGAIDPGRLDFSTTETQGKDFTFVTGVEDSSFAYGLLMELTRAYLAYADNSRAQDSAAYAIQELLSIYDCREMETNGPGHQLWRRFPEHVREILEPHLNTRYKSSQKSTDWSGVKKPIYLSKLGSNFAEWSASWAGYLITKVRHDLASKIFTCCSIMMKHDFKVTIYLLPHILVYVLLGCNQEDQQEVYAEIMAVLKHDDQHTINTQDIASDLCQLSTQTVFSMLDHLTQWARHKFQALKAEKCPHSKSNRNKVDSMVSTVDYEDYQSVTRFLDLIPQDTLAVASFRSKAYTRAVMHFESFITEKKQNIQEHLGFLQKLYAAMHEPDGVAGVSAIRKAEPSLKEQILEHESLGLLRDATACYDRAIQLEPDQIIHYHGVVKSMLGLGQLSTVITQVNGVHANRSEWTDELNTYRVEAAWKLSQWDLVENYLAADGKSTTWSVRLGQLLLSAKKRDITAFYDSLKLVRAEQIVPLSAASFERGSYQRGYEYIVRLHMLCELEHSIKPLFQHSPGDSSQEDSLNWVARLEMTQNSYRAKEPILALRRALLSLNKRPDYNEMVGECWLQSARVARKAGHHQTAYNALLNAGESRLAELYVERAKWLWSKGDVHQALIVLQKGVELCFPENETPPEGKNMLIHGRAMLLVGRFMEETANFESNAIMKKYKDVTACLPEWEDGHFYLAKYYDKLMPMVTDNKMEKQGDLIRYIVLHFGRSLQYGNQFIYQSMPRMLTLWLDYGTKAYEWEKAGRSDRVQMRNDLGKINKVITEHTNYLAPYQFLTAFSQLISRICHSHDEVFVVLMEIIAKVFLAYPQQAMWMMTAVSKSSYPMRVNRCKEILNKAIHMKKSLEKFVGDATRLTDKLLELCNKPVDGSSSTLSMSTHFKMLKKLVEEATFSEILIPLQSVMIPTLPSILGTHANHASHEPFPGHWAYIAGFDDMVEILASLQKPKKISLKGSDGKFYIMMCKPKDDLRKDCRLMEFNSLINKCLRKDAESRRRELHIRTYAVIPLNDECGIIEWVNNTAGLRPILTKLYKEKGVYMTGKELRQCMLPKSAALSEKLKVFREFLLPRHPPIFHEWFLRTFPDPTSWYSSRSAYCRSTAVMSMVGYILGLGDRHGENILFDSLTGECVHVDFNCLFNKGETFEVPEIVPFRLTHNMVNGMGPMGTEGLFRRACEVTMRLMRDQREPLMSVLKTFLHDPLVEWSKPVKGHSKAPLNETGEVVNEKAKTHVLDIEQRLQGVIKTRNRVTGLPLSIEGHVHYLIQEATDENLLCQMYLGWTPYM

## Nc1nn2cc(F)cnc2c1C(=O)Nc1cncc(F)c1N1CCC(C(=O)N2CCN(C3COC3)CC2)CC1 [Compound I-1, 2-amino-6-fluoro-N-[5-fluoro-4-[4-[4-(oxetan-3-yl)piperazine-1-carbonyl]-1-piperidyl]-3-pyridyl]pyrazolo[1,5-a]pyrimidine-3-carboxamide]
  Ki: < 1000 nM

## [2H]C1([2H])N(C(=O)C2CCN(c3c(F)cncc3NC(=O)c3c(N)nn4cc(F)cnc34)CC2)C([2H])([2H])C([2H])([2H])N(C2COC2)C1([2H])[2H] [Compound I-3, 2-amino-6-fluoro-N-(5-fluoro-4-(4-(2,2,3,3,5,5,6,6-octadeutero-4-(oxetan-3-yl)piperazine-1-carbonyl)piperidin-1-yl)-3-pyridyl)pyrazolo[1,5-a]pyrimidine-3-carboxamide]
  Ki: < 1000 nM
